Assay results as given in patent US20120141479A1, “Histone Deacetylase Inhibitors Sensitize Cancer Cells To Epidermal Growth Factor Inhibitors” (priority 2007, published 2012).

What was measured:
Type in all cases: cell-based
[1] = tested on: MSK2922 head & neck cancer cell line; test: Modified MTT growth inhibition assay; conditions: SNDX275 added as first drug
Method: (§1) Combination administrations were performed as sequential treatments where the HDAC inhibitor was administer prior to the EGFR inhibitor, or simultaneous treatments in selected cell lines. Concentrations of HDAC inhibitors and EGFR inhibitors are indicated as μM concentrations in all experiments. SNDX275 was administered in three increasing concentrations, with a variety of ranges depending upon the cell line.
(§2) Drugs were diluted in fresh medium before each experiment, and the final DMSO concentration was <0.1%. Growth inhibition was assessed using a modified MTT assay. 2×10^3 cells were plated in each well of 96-well flat-bottomed microtiter plates and drugs were added the next day. […] The microtiter plates were incubated for 4 hours at 37° C. The visible absorbance of each well was measured using an automated plate reader (Molecular Devices, Sunnyvale, Calif.), and data were analyzed using SlideWrite to determine the drug IC50.

[2] = tested on: Panc03.27 pancreatic cancer cell line; test: Modified MTT growth inhibition assay; conditions: Panc 03.27, both drugs added at the same time
Method: as §1, §2

[3] = tested on: Detroit562 head & neck cancer cell line; test: Modified MTT growth inhibition assay
Method: as §1, §2

[4] = tested on: HPAFII pancreatic cancer cell line; test: Modified MTT growth inhibition assay; conditions: SNDX275 added as first drug
Method: as §1, §2

[5] = tested on: FaDu head & neck cancer cell line; test: Modified MTT growth inhibition assay
Method: as §1, §2

[6] = tested on: Panc02.03 pancreatic cancer cell line; test: Modified MTT growth inhibition assay; conditions: Panc 02.03
Method: as §1, §2

[7] = tested on: UMSCC22B head & neck cancer cell line; test: Modified MTT growth inhibition assay
Method: as §1, §2

[8] = tested on: 1483 head & neck cancer cell line; test: Modified MTT growth inhibition assay; conditions: SNDX275 added as first drug
Method: as §1, §2

[9] = tested on: Panc04.03 pancreatic cancer cell line; test: Modified MTT growth inhibition assay; conditions: Panc 04.03
Method: as §1, §2

[10] = tested on: 584 head & neck cancer cell line; test: Modified MTT growth inhibition assay; conditions: SNDX275 added as first drug
Method: as §1, §2

[11] = tested on: HS766T pancreatic cancer cell line; test: Modified MTT growth inhibition assay
Method: as §1, §2

[12] = tested on: UMSCC19 head & neck cancer cell line; test: Modified MTT growth inhibition assay
Method: as §1, §2

[13] = tested on: E-cad expression in H460 cells; test: E-cad expression after HDAC inhibitor treatment; conditions: 24 hours after treatment with 4 or 10 μM MS-275
Method: (§3) RNA, Primers, and Quantitative Real-Time RT-PCR. Total RNA was prepared from NSCLC cell lines using the RNAeasy (Qiagen). During the preparation all samples were treated with RNase-free DNase 1 (10 mg/ml, Qiagen) prior to cDNA synthesis. cDNA was synthesized as part of the RT-PCR reaction from […] total RNA. Quantitative Real-Time RT-PCR assays were performed using the SYBR Green RT-PCR Kit (Qiagen) using a GeneAmp 5700 Sequence Detector (Applied Biosystems), which allows amplification and detection (by fluorescence) in the same tube, using a kinetic approach. Amplification data were analyzed by using GENEAMP 5700 SDS software, converted into cycle numbers at a set cycle threshold (Ct values) and quantified in relation to a standard. Human adult-lung (Clontech Lab. Inc) or human fetal-lung RNA (Stratagene) was used as standards in all the experiments. Standards were used at […]. In each experiment a no-template control was used as a control. To normalize for the amount of input cDNA, the quantified relative amount of the generated product was divided by the amount generated for the housekeeping gene beta-Actin. All samples were performed in triplicates.
(§4) Expression of E-cad was evaluated in these cell lines.

[14] = tested on: E-cad expression in H157 cells; test: E-cad expression after HDAC inhibitor treatment; conditions: 24 hours after treatment with 4 or 10 μM MS-275
Method: as §3, §4

[15] = tested on: E-cad expression in H520 cells; test: E-cad expression after HDAC inhibitor treatment; conditions: 24 hours after treatment with 4 or 10 μM MS-275
Method: as §3, §4

[16] = SNDX275 0.60 μM alone, SNDX275 added as first drug
[17] = SNDX275 0.60 μM alone, both drugs added at the same time
[18] = SNDX275 2.00 μM alone, SNDX275 added as first drug
[19] = SNDX275 2.00 μM alone, both drugs added at the same time
[20] = SNDX275 0.6 μM alone, both drugs added at the same time
[21] = SNDX275 1.0 μM alone, SNDX275 added as first drug
[22] = SNDX275 1.0 μM alone, both drugs added at the same time
[23] = SNDX275 3.0 μM alone, SNDX275 added as first drug
[24] = SNDX275 3.0 μM alone, both drugs added at the same time
[25] = SNDX275 6.0 μM alone, SNDX275 added as first drug
[26] = SNDX275 6.0 μM alone, both drugs added at the same time

For `Nc1ccccc1NC(=O)c1ccc(CNC(=O)OCc2cccnc2)cc1` [MS-275], the surviving ([1]; SNDX275 0.3 μM alone) was 68.519%, the surviving ([1]; SNDX275 0.6 μM alone) was 42.857% and the surviving ([1]; SNDX275 1.0 μM alone) was 24.438%. For the same compound, the surviving ([2]; SNDX275 0.10 μM alone) was 78.263%, the surviving ([2]; SNDX275 2.00 μM alone) was 38.926% and the surviving ([2]; SNDX275 6.00 μM alone) was 21.757%. For the same compound, the surviving ([3]; SNDX275 0.06 μM alone, SNDX275 added as first drug) was 75.017%, the surviving ([3]; SNDX275 0.06 μM alone, both drugs added at the same time) was 79.829% and the surviving [3, 16] was 58.925%. The surviving [3, 17] was 72.276%, the surviving [3, 18] was 23.887% and the surviving [3, 19] was 28.832%. It also gave a surviving ([4]; SNDX275 0.10 μM alone) of 74.635%, a surviving ([4]; SNDX275 0.30 μM alone) of 42.098% and a surviving ([4]; SNDX275 1.00 μM alone) of 28.287%. The surviving ([5]; SNDX275 0.30 μM alone, SNDX275 added as first drug) was 69.008%, the surviving ([5]; SNDX275 0.30 μM alone, both drugs added at the same time) was 87.506% and the surviving [5, 16] was 48.451%. The surviving [5, 17] was 73.418%, the surviving [5, 18] was 20.262% and the surviving [5, 19] was 30.504%. It also gave a surviving ([6]; SNDX275 0.6 μM alone, SNDX275 added as first drug) of 71.569%, a surviving [6, 20] of 44.980% and a surviving [6, 21] of 34.220%. The surviving [6, 22] was 34.529%, the surviving [6, 23] was 24.323% and the surviving [6, 24] was 25.444%. It also gave a surviving [7, 21] of 73.156%, a surviving [7, 22] of 76.730% and a surviving ([7]; SNDX275 2.0 μM alone, SNDX275 added as first drug) of 55.978%. It also gave a surviving ([7]; SNDX275 2.0 μM alone, both drugs added at the same time) of 63.169%, a surviving [7, 25] of 25.180% and a surviving [7, 26] of 55.057%. For the same compound, the surviving ([8]; SNDX275 0.6 μM alone) was 79.246%, the surviving ([8]; SNDX275 2.0 μM alone) was 51.509% and the surviving ([8]; SNDX275 3.0 μM alone) was 31.776%. For the same compound, the surviving ([9]; SNDX275 0.3 μM alone, SNDX275 added as first drug) was 71.205, the surviving [9, 20] was 63.051% and the surviving [9, 21] was 49.175. For the same compound, the surviving [9, 22] was 28.676%, the surviving [9, 23] was 37.954 and the surviving [9, 24] was 25.551%. The surviving ([10]; SNDX275 0.3 μM alone) was 84.045%, the surviving ([10]; SNDX275 1.0 μM alone) was 45.516% and the surviving ([10]; SNDX275 2.0 μM alone) was 20.656%. It also gave a surviving [11, 21] of 77.851%, a surviving [11, 22] of 78.939% and a surviving [11, 25] of 40.175%. It also gave a surviving [11, 26] of 55.038%, a surviving ([11]; SNDX275 10.0 μM alone, SNDX275 added as first drug) of 77.851% and a surviving ([11]; SNDX275 10.0 μM alone, both drugs added at the same time) of 32.797%. For the same compound, the surviving ([12]; SNDX275 0.60 μM alone, SNDX275 added as first drug (first table)) was 73.417%, the surviving ([12]; SNDX275 0.60 μM alone, SNDX275 added as first drug (second table)) was 83.778% and the surviving ([12]; SNDX275 2.00 μM alone, SNDX275 added as first drug (first table)) was 54.951%. For the same compound, the surviving ([12]; SNDX275 2.00 μM alone, SNDX275 added as first drug (second table)) was 46.466%, the surviving ([12]; SNDX275 6.00 μM alone, SNDX275 added as first drug (first table)) was 24.242% and the surviving ([12]; SNDX275 6.00 μM alone, SNDX275 added as first drug (second table)) was 37.033%. For the same compound, the “upregulation of E-cad expression” value [13] was “Eight to twelve fold”, the “upregulation of E-cad expression” value [14] was “Eight to twelve fold” and the “upregulation of E-cad expression” value [15] was “Eight to twelve fold”.
